Where no end group is shown, it is not given here.
Key:
[1] = system: allergen specific T cells; test: T cell proliferation assay (72 h) on donor derived T cell lines (TCL02/TCL03); type: cell-based, human; conditions: for Proliferation % donor coverage (TCL-02 DK1): T cell lines TCL-02 DK1, 30 donors, hit criteria SI>=2, CPM>=1000; for Proliferation strength (TCL-02 DK1): T cell lines TCL-02 DK1, strength of response (average relative magnitude); for T cell response in % of the donors tested: single peptide
Outline: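 Overlapping 20-mer and selected 15-mer grass allergen peptides were screened for proliferation using TCL02 (day 24) or TCL03 (day 34) lines. Lines came from grass-allergic donors' CD8-depleted PBMCs, primed with natural allergen mix and expanded with irradiated autologous or allogeneic APCs, PHA-P 0.5 μg/ml and rIL-2.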

[2] = Peptide solubility by visual inspection; type: physicochemical; for Visual inspection after centrifugation pH 7: key: ok: clear solution; +: very small precipitation only visible with a magnifier; ++: precipitation/turbid solution; +++: more precipitation/turbid solution
Procedure: Water (pH 3-5) • 2. 250 mM D-Mannitol and 25 mM sodium acetate, pH 4.5 • 3. 250 mM D-Mannitol and 25 mM sodium phosphate, pH 7.0 • 4. […] Water (pH 3-5) • 2. 250 mM D-Mannitol and 25 mM sodium acetate, pH 4.5 • 3. 250 mM D-Mannitol and 25 mM sodium phosphate, pH 7.0 • 4. […] A subset of the peptides was selected as candidate peptides for a final peptide mixture. […] During the solubility studies the peptide-containing solutions were inspected visually before and after filtration for turbidity, and presence of particles/aggregates. In addition, presence of turbidity/particles/aggregates was also detected by optical density (OD) or absorbance of filtered material, but might also be detected by size-exclusion chromatography. Furthermore, Sub-visual particles may also be detected by dynamic light scattering (DLS) analysis on filtered and non-filtered peptide containing solutions. Samples were furthermore subjected to centrifugation to allow for the possible visual inspection of pelleted material.

[3] = 3 mg/mL, acetate salt, non-filtered, 250 mM D-Mannitol and 25 mM sodium phosphate, pH 7.0

Substance | solubility, 1st round of solubility screening [2] | Visual inspection after 60 min pH 4.5 ([2]; 3 mg/mL, acetate salt, non-filtered, 250 mM D-Mannitol and 25 mM sodium acetate, pH 4.5) | Visual inspection after centrifugation pH 4.5 ([2]; 3 mg/mL, acetate salt, non-filtered, 250 mM D-Mannitol and 25 mM sodium acetate, pH 4.5, after centrifugation) | Visual inspection after 60 min pH 7 [2, 3] | Visual inspection after centrifugation pH 7 ([2]; 3 mg/mL, acetate salt, non-filtered, 250 mM D-Mannitol and 25 mM sodium phosphate, pH 7.0, after centrifugation) | Proliferation % donor coverage (TCL-02 DK1) [1] [%] | Proliferation strength (TCL-02 DK1) [1] | T cell response in % of the donors tested [1] [%] | solubility in aqueous solutions [2]
VATLSEALRIIAGTLEVHAV-OH [compound 67] |  |  |  |  |  | 43.33 | 7.30 |  | 
PANDKFTVFEAAFNNAIKAS-OH [compound 70] | soluble |  |  |  |  | 46.67 | 8.10 |  | 
STGGAYESYKFIPALEAAVK-OH [compound 71] | soluble |  |  | tread + |  | 46.67 | 8.20 | ~50 | surprisingly good solubility in aqueous solutions
AYESYKFIPALEAAVKQAYA-OH [peptide 285] |  |  |  |  |  |  |  | ~50 | surprisingly good solubility in aqueous solutions

More lines, main results first:

solubility, 1st round of solubility screening [2] | Visual inspection after 60 min pH 4.5 ([2]; 3 mg/mL, acetate salt, non-filtered, 250 mM D-Mannitol and 25 mM sodium acetate, pH 4.5) | Visual inspection after centrifugation pH 4.5 ([2]; 3 mg/mL, acetate salt, non-filtered, 250 mM D-Mannitol and 25 mM sodium acetate, pH 4.5, after centrifugation) | Visual inspection after 60 min pH 7 [2, 3] | Visual inspection after centrifugation pH 7 ([2]; 3 mg/mL, acetate salt, non-filtered, 250 mM D-Mannitol and 25 mM sodium phosphate, pH 7.0, after centrifugation) | Substance | Proliferation % donor coverage (TCL-02 DK1) [1] [%] | Proliferation strength (TCL-02 DK1) [1] | T cell response in % of the donors tested [1] [%] | solubility in aqueous solutions [2]
soluble | + particles, | ++ | particles + | +++ | WGAIWRIDTPDKLTGPFTVR-OH [peptide 211] |  |  | ~40 | surprisingly good solubility in aqueous solutions
soluble |  |  |  |  | TDDNEEPIAPYHFDLSGHAF-OH [peptide 204] |  |  | ~40 | surprisingly good solubility in aqueous solutions
soluble |  |  |  |  | DKYRTFVATFGAASNKAFAE-OH [peptide 231] |  |  | ~40 | 

— patent US20180207228A1, “PEPTIDE COMBINATIONS AND USES THEREOF FOR TREATING GRASS ALLERGY” (ALK-Abelló A/S, priority 2015, published 2018)
